Source: publication PMC2811323 (The Journal of neuroscience : the official journal of the …, 2009)

Columns and labels:
hM1 receptor = assay: Millipore GPCR Profiler functional screen, hM1; type: cell-based, human; conditions: two-addition protocol, BQCA 12.5 μM in first addition
hM4 receptor = assay: Millipore GPCR Profiler functional screen, hM4; type: cell-based, human; conditions: two-addition protocol, BQCA 12.5 μM in first addition
[1] = test system: 15 other closely related GPCRs; assay: Millipore GPCR Profiler functional screen, GPCR panel; type: cell-based
[2] = test system: rat mPFC layer V pyramidal cells; assay: Inward; type: cell-based
[3] = test system: rat mPFC layer V pyramidal cells; assay: Spontaneous EPSCs in acute rat brain slices; type: cell-based
[4] = test system: mPFC layer V neurons, wildtype (WT) mice; assay: Spontaneous EPSCs in slices from wild-type mice; type: cell-based, mouse
[5] = test system: rat mPFC layer V pyramidal cells; type: cell-based; conditions: 10 μM; 1 μM TTX
[6] = 10 μM applied alone, −70 mV, 1 μM TTX

Structure (SMILES): COc1ccc(Cn2cc(C(=O)[O-])c(=O)c3ccccc32)cc1.[Na+] [BQCA, Sodium 1-(4-methoxybenzyl)-4-oxo-1,4-dihydroquinoline-3-carboxylate]
- Potentiation of the functional response (hM1 receptor): robust potentiation
- Activity in the functional screen (hM4 receptor): no activity
- Agonist activity when applied alone in the first addition ([1]; 12.5 μM, any receptor tested): no agonist activity
- Effect (PAM or antagonist activity) at the other GPCRs tested ([1]; two-addition protocol, BQCA 12.5 μM in first addition): no effect

Structure (SMILES): C[N+](C)(C)CCOC(N)=O [CCh, carbachol]
- Inward current (change in holding current) [2, 6]: 16.55 ± 1.93 pA
- Inward current (change in holding current) ([2]; 100 μM applied alone, −70 mV, 1 μM TTX): 53.14 ± 5.92 pA
- sEPSC amplitude ([3]; 10 μM applied alone): 97.5 ± 4.4 % control
- sEPSC frequency ([3]; 10 μM applied alone): 90.1 ± 12.4 % control
- sEPSC amplitude ([3]; 30 μM applied alone): 108.3 ± 3.9 % control
- sEPSC frequency ([3]; 30 μM applied alone): 455.0 ± 101.9 % control
- sEPSC amplitude ([3]; 100 μM applied alone): 154.3 ± 46.2 % control
- sEPSC frequency ([3]; 100 μM applied alone): 887.6 ± 268.5 % control
- sEPSC amplitude ([4]; 3 μM applied alone): 102.6 ± 11.7 % of control
- sEPSC frequency ([4]; 3 μM applied alone): 83.2 ± 47.1%
- sEPSC amplitude ([4]; 30 μM applied alone): 143.1 ± 22.0%
- sEPSC frequency ([4]; 30 μM applied alone): 398.3 ± 56.2%
- mEPSC amplitude [5]: 88.6 ± 3.8 % control

Structure (SMILES): O=C(CCNS(=O)(=O)c1cccc2nsnc12)N1CCN(c2ccncc2)CC1 [VU0255035]
- Inward current (change in holding current) [2, 6]: no effect
- Inward current (change in holding current) ([2]; 100 μM CCh in the presence of 10 μM VU0255035): 11.78 ± 1.90 pA
- sEPSC amplitude ([3]; 5 μM antagonist with 30 μM CCh): 87.1 ± 3.5 % control
- sEPSC frequency ([3]; 5 μM antagonist with 30 μM CCh): 62.5 ± 10.1 % control
- sEPSC amplitude ([3]; 5 μM applied alone): 92.9 ± 3.4 % control
- sEPSC frequency ([3]; 5 μM applied alone): 114.1 ± 25.8 % control
